These results are taken from ChEMBL document CHEMBL1153701, “Synthesis and evaluation of antiallodynic and anticonvulsant activity of novel amide and urea derivatives of valproic acid analogues” (2009).

Active and inactive are the calls of the source. No cut-off for these calls is given here.

Assay [1] is filed under the species Rattus norvegicus. Nature of the assay: Ratio of ED50 for antiallodynic activity in rat assessed as protection against spinal nerve ligation-induced neuropathic pain to ED50 for antiepileptic activity in rat by maximal electroshock-induced seizures assay. It counts as functional. On the technique in general: The maximal electroshock test induces tonic seizures with an electrical stimulus.

For assay [2], the system named is Mus musculus. Put plainly: Antiepileptic activity in CF1 mouse assessed as inhibition of subcutaneous pentylenetetrazole-induced seizures at 300 mg/kg, ip after 4 hrs. It counts as functional, organism-based. Set-up: dose 300 mg/kg.
In assay [3] the test system is Mus musculus. Nature of the assay: Antiepileptic activity in CF1 mouse assessed as inhibition of maximal electroshock-induced seizures at 300 mg/kg, ip after 0.5 hrs. It counts as functional, organism-based. Set-up: dose 300 mg/kg.
The test system of assay [4] is Mus musculus. Nature of the assay: Antiepileptic activity in CF1 mouse assessed as inhibition of maximal electroshock-induced seizures at 30 mg/kg, ip after 0.5 hrs. Also noted: dose 30 mg/kg. It counts as functional, organism-based.
For assay [5], the system named is Mus musculus. Nature of the assay: Neurotoxicity in CF1 mouse assessed as protection against motor impairment at 300 mg/kg, ip after 0.5 hrs by rotarod test. It counts as functional, organism-based. Set-up: dose 300 mg/kg. A general note: Falling from the rotarod earlier than controls is read as motor impairment.
Assay [6] relates to Mus musculus. Put plainly: Antiepileptic activity in CF1 mouse assessed as inhibition of subcutaneous pentylenetetrazole-induced seizures at 100 mg/kg, ip after 4 hrs. It counts as functional, organism-based. Set-up: dose 100 mg/kg.
The subject of assay [7] is Mus musculus. Nature of the assay: Neurotoxicity in CF1 mouse assessed as protection against motor impairment at 100 mg/kg, ip after 4 hrs by rotarod test. It counts as functional, organism-based. Set-up: dose 100 mg/kg.
Assay [8] has as its system Mus musculus. Nature of the assay: Antiepileptic activity in CF1 mouse assessed as inhibition of maximal electroshock-induced seizures at 30 mg/kg, ip after 4 hrs. It counts as functional, organism-based. Also noted: dose 30 mg/kg.
Assay [9] concerns Rattus norvegicus. Put plainly: Antiallodynic activity in ip dosed rat assessed as protection against spinal nerve ligation-induced neuropathic pain. It counts as functional.
For assay [10], the system named is Mus musculus. Nature of the assay: Antiepileptic activity in ip dosed CF1 mouse assessed as inhibition of maximal electroshock-induced seizures. It counts as functional.
Assay [11] deals with Mus musculus. Put plainly: Neurotoxicity in CF1 mouse assessed as protection against motor impairment at 30 mg/kg, ip after 0.5 hrs by rotarod test. It counts as functional, organism-based. Set-up: dose 30 mg/kg.
The subject of assay [12] is Rattus norvegicus. Nature of the assay: Anticonvulsant activity in albino Sprague-Dawley rat assessed as protection against pilocarpine-induced seizure at 100 mg/kg, ip. It counts as functional, organism-based. Set-up: dose 100 mg/kg.
Assay [13] concerns Mus musculus. Put plainly: Antiepileptic activity in CF1 mouse assessed as inhibition of subcutaneous pentylenetetrazole-induced seizures at 30 mg/kg, ip after 0.5 hrs. It counts as functional, organism-based. Set-up: dose 30 mg/kg.
The subject of assay [14] is Mus musculus. Nature of the assay: Antiepileptic activity in CF1 mouse assessed as inhibition of subcutaneous pentylenetetrazole-induced seizures at 30 mg/kg, ip after 4 hrs. It counts as functional, organism-based. Also noted: dose 30 mg/kg.
Assay [15] relates to Mus musculus. Nature of the assay: Antiepileptic activity in CF1 mouse assessed as inhibition of maximal electroshock-induced seizures at 300 mg/kg, ip after 4 hrs. It counts as functional, organism-based. Set-up: dose 300 mg/kg.
Assay [16] concerns Mus musculus. Put plainly: Antiepileptic activity in CF1 mouse assessed as inhibition of maximal electroshock-induced seizures at 100 mg/kg, ip after 0.5 hrs. It counts as functional, organism-based. Set-up: dose 100 mg/kg.
The subject of assay [17] is Mus musculus. Nature of the assay: Neurotoxicity in CF1 mouse assessed as protection against motor impairment at 30 mg/kg, ip after 4 hrs by rotarod test. Set-up: dose 30 mg/kg. It counts as functional, organism-based.
In assay [18] the test system is Mus musculus. Nature of the assay: Neurotoxicity in CF1 mouse assessed as protection against motor impairment at 300 mg/kg, ip after 4 hrs by rotarod test. It counts as functional, organism-based. Set-up: dose 300 mg/kg.
For assay [19], the system named is Mus musculus. Put plainly: Antiepileptic activity in CF1 mouse assessed as inhibition of maximal electroshock-induced seizures at 100 mg/kg, ip after 4 hrs. Also noted: dose 100 mg/kg. It counts as functional, organism-based.
For assay [20], the system named is Mus musculus. Nature of the assay: Antiepileptic activity in CF1 mouse assessed as inhibition of subcutaneous pentylenetetrazole-induced seizures at 300 mg/kg, ip after 0.5 hrs. It counts as functional, organism-based. Set-up: dose 300 mg/kg.
Assay [21] has as its system Mus musculus. Nature of the assay: Neurotoxicity in CF1 mouse assessed as protection against motor impairment at 100 mg/kg, ip after 0.5 hrs by rotarod test. It counts as functional, organism-based. Also noted: dose 100 mg/kg.
The test system of assay [22] is Mus musculus. Put plainly: Antiepileptic activity in CF1 mouse assessed as inhibition of subcutaneous pentylenetetrazole-induced seizures at 100 mg/kg, ip after 0.5 hrs. Also noted: dose 100 mg/kg. It counts as functional, organism-based.
The subject of assay [23] is Mus musculus. Nature of the assay: Antiepileptic activity in ip dosed CF1 mouse assessed as inhibition of subcutaneous pentylenetetrazole-induced seizures. It counts as functional.
Assay [24] deals with Rattus norvegicus. Nature of the assay: Anticonvulsant activity in ip dosed albino Sprague-Dawley rat assessed as protection against pilocarpine-induced seizure treated after 30 mins of pilcarpine challenge. It counts as functional. The settings on record: 0.5 h.
Assay [25] concerns Rattus norvegicus. Put plainly: Anticonvulsant activity in albino Sprague-Dawley rat assessed as protection against pilocarpine-induced seizure at 37.5 mg/kg, ip. It counts as functional, organism-based. Also noted: dose 37.5 mg/kg.
In assay [26] the test system is Rattus norvegicus. Put plainly: Anticonvulsant activity in albino Sprague-Dawley rat assessed as protection against pilocarpine-induced seizure at 75 mg/kg, ip. It counts as functional, organism-based. Also noted: dose 75 mg/kg.

One may read the ED50 as the dose that gives a 50% effect, or the effect in half of the subjects. Take `CC(C)(C)CC(=O)NC(N)=O`: the ratio in [1] was found to be 0.86. Further, the outcome in [2], in [4], in [6], in assay [7], in [8] and in assay [11] was inactive. Further, the result in assay [13], in [14], in [15], in assay [16], in assay [17] and in [18] was inactive. In addition, the result in assay [19] was inactive. For the same compound, the result in assay [3], in [5], in assay [12] and in assay [20] was Active. Besides, the ED50 in [9] was determined as 74 mg/kg; in assay [10], 64 mg/kg.

For the compound `CCCCC(CC)C(N)=O` (configuration not stated), the outcome in assay [4], in assay [6], in assay [7], in assay [8], in assay [11] and in assay [21] was inactive. For the same compound, the result in assay [13], in assay [14], in assay [15], in assay [22], in assay [17] and in assay [19] was inactive. Also, the outcome in assay [5] and in [16] was Active. In assay [23], the ED50 worked out at 103 mg/kg.

With `CCC(C)C(CC)C(=O)NC(N)=O` (configuration not stated) [CAPURIDE], the ratio in assay [1] turned out to be 0.49. The outcome in assay [2], in assay [3], in [5], in assay [21], in assay [15] and in assay [16] was Active. For the same compound, the outcome in [22], in [18], in [25], in [26] and in assay [20] was Active. The result in [4], in [6], in [7], in assay [8], in assay [13] and in assay [14] was inactive. Also, the result in assay [17] and in assay [19] was inactive. The ED50 was determined as 49 mg/kg in [9] and 23 mg/kg in assay [24].
